Experimental findings from patent publication US20070123546A1, “2-amino-7,8-dihydro-6H-pyrido[4,3-d]pyrimidin-5-ones” (Chiron Corporation, priority 2005, published 2007) are described below.

The term IC50 denotes the midpoint of a concentration-inhibition curve. Read a low IC50 as greater potency in that assay.

The first test concerns the target His-tagged N-terminal ATP binding domain (amino acid residues 9-236) of HSP90α (Homo sapiens, UniProt P07900). The test can be described thus: HSP90 inhibitor binding potency: TRF competition binding assay. The following applies: Table 1; competition with biotinylated radicicol. How it is done:
HSP90 Inhibitor Binding Potency: TRF Binding Assay
In this example, the binding potency of HSP90 inhibitors as measured by a TRF binding assay is described.
TRF competition binding assays were performed to determine the binding potency (IC50 values) of HSP90 inhibitors. Purified His-tagged N-terminal ATP binding domain (amino acid residues 9-236) of HSP90α (HSP90α GeneID: 3320; mRNA Sequence NM_005348) was incubated for two hours at room temperature in binding buffer (50 mM HEPES, 6 mM MgCl2, 20 mM KCl and 0.1% BSA) with biotinylated radicicol and progressively higher concentrations of the competing compounds. A fraction of the mixture was transferred to capture plates (coated with streptavidin) and incubated for one hour at room temperature. After washing with DELFIA wash buffer, europium-labeled anti-his antibody was added and incubated for two hours at room temperature, followed by washing with DELFIA buffer. DELFIA enhancement solution was then added. After gentle shaking for 10 minutes, the plates were read in VICTOR for europium counts.
Molecule `COc1cccc(-c2cc(F)ccc2C2Cc3nc(N)nc(C)c3C(=O)N2CC(C)(C)N2CCOCC2)c1` (centres unmarked) [Compound 39, 2-Amino-7-(5-fluoro-3′-methoxy-biphenyl-2-yl)-4-methyl-6-(2-methyl-2-morpholin-4-yl-propyl)-7,8-dihydro-6H-pyrido[4,3-d]pyrimidin-5-one] had a half-inhibitory concentration (IC50) of more than 10 µM.

Molecule `Cc1nc(N)nc2c1C(=O)NC(c1ccc(F)cc1-c1ccccc1F)C2` (centres unmarked) [Compound 14, 2-Amino-7-(5,2′-difluoro-biphenyl-2-yl)-4-methyl-7,8-dihydro-6H-pyrido[4,3-d]pyrimidin-5-one] came in with an IC50 of less than 10 µM.

Consider `COc1ccc([C@H](C)N2C(=O)c3c(C)nc(N)nc3C[C@@H]2c2ccc(F)cc2Br)cc1` [Compound 4, (R)-2-Amino-7-(2-bromo-4-fluoro-phenyl)-6-[(S)-1-(4-methoxy-phenyl)-ethyl]-4-methyl-7,8-dihydro-6H-pyrido[4,3-d]pyrimidin-5-one], for which the half-inhibitory concentration (IC50) was more than 10 µM.

With `Cc1cc(F)ccc1-c1cc(F)ccc1C1Cc2nc(N)nc(C)c2C(=O)N1` (centres unmarked) [Compound 22, 2-Amino-7-(5,4′-difluoro-2′-methyl-biphenyl-2-yl)-4-methyl-7,8-dihydro-6H-pyrido[4,3-d]pyrimidin-5-one], the IC50 is less than 10 µM.

Molecule `COc1ncccc1-c1cc(F)ccc1C1Cc2nc(N)nc(C)c2C(=O)N1` (centres unmarked) [Compound 25, 2-Amino-7-[4-fluoro-2-(2-methoxy-pyridin-3-yl)-phenyl]-4-methyl-7,8-dihydro-6H-pyrido[4,3-d]pyrimidin-5-one] gave a 50% inhibitory concentration (IC50) of more than 10 µM.

In the case of `Cc1nc(N)nc2c1C(=O)NC(c1ccc(F)cc1-c1cncc3ccccc13)C2` (centres unmarked) [Compound 18, 2-Amino-7-(4-fluoro-2-isoquinolin-4-yl-phenyl)-4-methyl-7,8-dihydro-6H-pyrido[4,3-d]pyrimidin-5-one], the IC50 was less than 10 µM.

The same test, now with this note: Table 2; competition with biotinylated radicicol.
As to `CCc1nc(N)nc2c1C(=O)N[C@@H](c1ccc(F)cc1Br)C2` [Compound 70, (R)-2-Amino-7-(2-bromo-4-fluoro-phenyl)-4-ethyl-7,8-dihydro-6H-pyrido[4,3-d]pyrimidin-5-one], the half-maximal inhibitory concentration (IC50) is more than 10 µM.

The molecule `COc1cncc(-c2cc(F)ccc2[C@H]2Cc3nc(N)ncc3C(=O)N2)n1` [Compound 53, (R)-2-Amino-7-[4-fluoro-2-(6-methoxy-pyrazin-2-yl)-phenyl]-7,8-dihydro-6H-pyrido[4,3-d]pyrimidin-5-one] registered a concentration for half-maximal inhibition (IC50) of less than 10 µM.

The molecule `CCc1nc(N)nc2c1C(=O)N[C@@H](c1ccc(F)cc1-c1cccc(OC)n1)C2` [Compound 81, (R)-2-Amino-4-ethyl-7-[4-fluoro-2-(6-methoxy-pyridin-2-yl)-phenyl]-7,8-dihydro-6H-pyrido[4,3-d]pyrimidin-5-one] registered an IC50 of less than 10 µM.

Regarding `CCc1nc(N)nc2c1C(=O)N[C@@H](c1ccccc1-c1cncc(OC)n1)C2` [Compound 78, (R)-2-Amino-4-ethyl-7-[2-(6-methoxy-pyrazin-2-yl)-phenyl]-7,8-dihydro-6H-pyrido[4,3-d]pyrimidin-5-one], the half-maximal inhibitory concentration (IC50) is less than 10 µM.

`COc1nc(-c2ccccc2[C@H]2Cc3nc(N)nc(C)c3C(=O)N2)ccc1N` [Compound 45, (R)-2-Amino-7-[2-(5-amino-6-methoxy-pyridin-2-yl)-phenyl]-4-methyl-7,8-dihydro-6H-pyrido[4,3-d]pyrimidin-5-one]: the IC50 is less than 10 µM.

`CCc1nc(N)nc2c1C(=O)N[C@@H](c1ccc(F)cc1-c1cncc(OC)n1)C2` [Compound 82, (R)-2-Amino-4-ethyl-7-[4-fluoro-2-(6-methoxy-pyrazin-2-yl)-phenyl]-7,8-dihydro-6H-pyrido[4,3-d]pyrimidin-5-one] registered an IC50 of less than 10 µM.

In the case of `Cc1nc(N)nc2c1C(=O)N[C@@H](c1ccc(F)cc1-c1nccc(N3CCCC3)n1)C2` [Compound 49], the concentration for half-maximal inhibition (IC50) was more than 10 µM.

Molecule `COc1ccnc(-c2cc(F)ccc2[C@H]2Cc3nc(N)nc(C)c3C(=O)N2)n1` [Compound 48] showed an IC50 of less than 10 µM.

For the molecule `CCOc1cncc(-c2ccccc2[C@H]2Cc3nc(N)nc(C)c3C(=O)N2)n1` [Compound 71, (R)-2-Amino-7-[2-(6-ethoxy-pyrazin-2-yl)-phenyl]-4-methyl-7,8-dihydro-6H-pyrido[4,3-d]pyrimidin-5-one], the IC50 was less than 10 µM.

The test is the same for the next values; noted with them: Table 3; competition with biotinylated radicicol.
`COc1cccc(-c2cc(F)ccc2[C@H]2Cc3nc(N)nc(C)c3C(=O)N2Cc2ccccc2Cl)n1` [Compound 125, (R)-2-Amino-6-(2-chloro-benzyl)-7-[4-fluoro-2-(6-methoxy-pyridin-2-yl)-phenyl]-4-methyl-7,8-dihydro-6H-pyrido[4,3-d]pyrimidin-5-one] had an IC50 of less than 10 µM.

`COc1nc(-c2cc(F)ccc2[C@H]2Cc3nc(N)nc(C)c3C(=O)N2Cc2ccccc2Cl)cnc1N` [Compound 126, (R)-2-Amino-7-[2-(5-amino-6-methoxy-pyrazin-2-yl)-4-fluoro-phenyl]-6-(2-chloro-benzyl)-4-methyl-7,8-dihydro-6H-pyrido[4,3-d]pyrimidin-5-one] came in with an IC50 of less than 10 µM.

As to `Nc1ncc2c(n1)C[C@H](c1ccc(F)cc1)NC2=O` [Compound 98, (R)-2-Amino-7-(4-fluoro-phenyl)-7,8-dihydro-6H-pyrido[4,3-d]pyrimidin-5-one], the IC50 is less than 10 µM.

For `Cc1nc(N)nc2c1C(=O)NC(c1ccc(F)cc1-c1ccncc1)C2` (centres unmarked) [Compound 90, 2-Amino-7-(4-fluoro-2-pyridin-4-yl-phenyl)-4-methyl-7,8-dihydro-6H-pyrido[4,3-d]pyrimidin-5-one], the IC50 was more than 10 µM.

Molecule `CCN1C(=O)c2c(C)nc(N)nc2C[C@@H]1c1ccc(F)cc1-c1cncc(OC)n1` [Compound 108, (R)-2-Amino-6-ethyl-7-[4-fluoro-2-(6-methoxy-pyrazin-2-yl)-phenyl]-4-methyl-7,8-dihydrp-6H-pyrido[4,3-d]pyrimidin-5-one] displayed a concentration for half-maximal inhibition (IC50) of less than 10 µM.

Take `Cc1nc(N)nc2c1C(=O)N(CC(C)C)[C@@H](c1ccc(F)cc1Br)C2` [Compound 149, (R)-2-Amino-7-(2-bromo-4-fluoro-phenyl)-6-isobutyl-4-methyl-7,8-dihydro-6H-pyrido[4,3-d]pyrimidin-5-one]: the IC50 was more than 10 µM.

Take `COc1cncc(-c2cc(F)ccc2[C@H]2Cc3nc(N)nc(C)c3C(=O)N2Cc2ccccc2F)n1` [Compound 129, (R)-2-Amino-6-(2-fluoro-benzyl)-7-[4-fluoro-2-(6-methoxy-pyrazin-2-yl)-phenyl]-4-methyl-7,8-dihydro-6H-pyrido[4,3-d]pyrimidin-5-one]: the IC50 was less than 10 µM.

In turn, `COc1nc(-c2cc(F)ccc2[C@@H]2Cc3nc(N)nc(C)c3C(=O)N2)cnc1N` [Compound 100, (S)-2-Amino-7-[2-(5-amino-6-methoxy-pyrazin-2-yl)-4-fluoro-phenyl]-4-methyl-7,8-dihydro-6H-pyrido[4,3-d]pyrimidin-5-one] gave an IC50 of more than 10 µM.

The same test, now with this note: Table 4; competition with biotinylated radicicol.
Turning to `COc1ccc(F)cc1-c1cc(F)ccc1[C@H]1Cc2nc(N)ncc2C(=O)N1` [Compound 177, (R)-2-Amino-7-(5,5′-difluoro-2′-methoxy-biphenyl-2-yl)-7,8-dihydro-6H-pyrido[4,3-d]pyrimidin-5-one], the concentration for half-maximal inhibition (IC50) was less than 10 µM.

Molecule `CCOc1cccc(-c2cc(F)ccc2[C@H]2Cc3nc(N)nc(C)c3C(=O)N2)n1` [Compound 187, (R)-2-Amino-7-[2-(6-ethoxy-pyridin-2-yl)-4-fluoro-phenyl]-4-methyl-7,8-dihydro-6H-pyrido[4,3-d]pyrimidin-5-one] yielded a 50% inhibitory concentration (IC50) of less than 10 µM.

Turning to `CCOc1nc(-c2cc(F)ccc2[C@H]2Cc3nc(N)nc(CC)c3C(=O)N2)cnc1N` [Compound 226, (R)-2-Amino-7-[2-(5-amino-6-ethoxy-pyrazin-2-yl)-4-fluoro-phenyl]-4-ethyl-7,8-dihydro-6H-pyrido[4,3-d]pyrimidin-5-one], the IC50 is less than 10 µM.

Consider `COc1cncc(-c2scnc2[C@H]2Cc3nc(N)nc(C)c3C(=O)N2)n1` [Compound 186, (R)-2-Amino-7-[5-(6-methoxy-pyrazin-2-yl)-thiazol-4-yl]-4-methyl-7,8-dihydro-6H-pyrido[4,3-d]pyrimidin-5-one], for which the IC50 was less than 10 µM.

With `COc1cccc(-c2scnc2[C@@H]2Cc3nc(N)nc(C)c3C(=O)N2)n1` [Compound 232, (S)-2-Amino-7-[5-(6-methoxy-pyridin-2-yl)-thiazol-4-yl]-4-methyl-7,8-dihydro-6H-pyrido[4,3-d]pyrimidin-5-one], the 50% inhibitory concentration (IC50) was less than 10 µM.

For the molecule `Cc1nc(N)nc2c1C(=O)N[C@@H](c1ccc(F)cc1-c1nccc(N3CCCC3)n1)C2` [Compound 207, (R)-2-Amino-7-[4-fluoro-2-(4-pyrrolidin-1-yl-pyrimidin-2-yl)-phenyl]-4-methyl-7,8-dihydro-6H-pyrido[4,3-d]pyrimidin-5-one], the IC50 was not below 10 µM.

As for `COc1ncc(-c2cc(F)ccc2[C@H]2Cc3nc(N)ncc3C(=O)N2)c(OC)n1` [Compound 192, (R)-2-Amino-7-[2-(2,4-dimethoxy-pyrimidin-5-yl)-4-fluoro-phenyl]-7,8-dihydro-6H-pyrido[4,3-d]pyrimidin-5-one], the IC50 is not below 10 µM.

For `CCOc1cncc(-c2cc(F)ccc2[C@H]2Cc3nc(N)ncc3C(=O)N2)n1` [Compound 218, (R)-2-Amino-7-[2-(6-ethoxy-pyrazin-2-yl)-4-fluoro-phenyl]-7,8-dihydro-6H-pyrido[4,3-d]pyrimidin-5-one], the half-maximal inhibitory concentration (IC50) was less than 10 µM.

`COc1cccc(-c2cc(F)ccc2[C@H]2Cc3nc(N)nc(C)c3C(=O)N2)c1OC` [Compound 213, (R)-2-Amino-7-(5-fluoro-2′,3′-dimethoxy-biphenyl-2-yl)-4-methyl-7,8-dihydro-6H-pyrido[4,3-d]pyrimidin-5-one] registered an IC50 of less than 10 µM.
